Read-outs that look alike come from different tables or passages of the source.
How the values were obtained:
G317 spheroids = test: 3D spheroids assay, G317 spheroid area; format: cell-based, human; conditions: pre-formed spheroids; 0.01–10 µM for 8 days
Procedure: To test the compounds under conditions that better represent the tumour microenvironment, G317 cells were cultured in 3D and pre-formed spheroids treated with eCF309, eCF324 and the positive controls at a range of concentrations (0.01–10 µM) for 8 days.
Fig. 6 (a) Images of G317 spheroids on day 10. Spheroids were treated with 10 μM of each inhibitor during 8 days, images were acquired using ImageXpress. Scale bar = 100 μm. (b) Area of G317 patient derived spheroids at day 10. Spheroid area was calculated with a custom pipeline on CellProfiler. Data are mean ± SEM of 6 independent spheroids from two different cultures, ***P < 0.001, **P < 0.01 compared to DMSO controls (two-way ANOVA, Tukey post hoc test).
4 × 10^3 G317 cells were seeded in an ultra-low attachment round bottom 96-well plate, centrifuged at 1000g, 4 °C for 10 min and allowed to form spheroids for 2 days. Spheroids were then incubated with the inhibitors at 4 concentrations ranging from 10 nM to 10 µM. Spheroids were imaged at day 10 using ImageXpress (Molecular Devices LLC) and processed with ImageJ.[25] Spheroid area was calculated with a custom pipeline on CellProfiler.[26]

[1] = test system: G317 patient-derived glioma cells; test: Growth inhibition (GI50, PrestoBlue, 5 d) in patient-derived glioma cells G317; format: cell-based, human; conditions: Homo sapiens, Glioma cell, 120 h, 5 d treatment, growth related to t=0 and DMSO, extrapolated from sigmoidal dose-response curve, read-out: GI50 (50% of growth inhibition) in G317
Procedure: Cells were treated with each inhibitor at concentrations ranging from 1 to 10,000 nM and PrestoBlue assay used at day 5 to detect viability. […] Data are means ± SEM of 3 independent experiments in triplicates.
U87 and T98 cells (ATCC) were cultured in DMEM (Gibco), supplemented with 10% (v/v) FBS (Gibco) and 2 mM L-Glutamine (Gibco) in a standard incubator (95% humidity, 5% CO2), and subcultured twice per week through trypsinization. G317 patient-derived glioma cells were established by the Glioma Cellular Genetics Resource (gcgr.org.uk) funded by Cancer Research UK. Ethics approval for use of patient-derived cells and early access confirmation to reagents from the Glioma Cellular Genetics Resource assured that all ethical issues according to UK legislation are fulfilled. G317 were cultured in DMEM/HAMS-F12 (Sigma) supplemented with 1.5 g L^−1 D-(+)-Glucose (Sigma), MEM non-essential aminoacids (Gibco), 0.015% (w/v) Penicillin-Streptomycin (Gibco), 0.012% (w/v) BSA (Gibco), 0.1 mM β-mercaptoethanol (Gibco), B27 (Gibco) and N2 supplements (Gibco). Cells were detached using accutase solution (Sigma) and subcultured once per week. Before adding to the cells, medium was supplemented with 10 ng ml^−1 mouse EGF (Preprotech), 10 ng ml^−1 human FGF (Preprotech), and 1 µg ml^−1 Laminin (Sigma).
1 × 10^3 U87 cells/well, 5 × 10^2 T98 cells/well, 1 × 10^4 G317 cells/well, 1 × 10^4 HBVP cells/well and 1 × 10^4 bEnd3 cells/well were seeded in 96-well plates. After 48 h in culture, cells were treated with the inhibitors for 5 d. For GI50 determination, the viability of a triplicate sample of each experiment before treatment was measured with the PrestoBlue Reagent (Invitrogen), to establish a basepoint 0% of growth. […] ZIP Synergy scores were obtained with Synergy finder.[22] Viability percentage, EC50 and GI50 values were obtained using GraphPad Prism version 8.0.0 for Windows, GraphPad Software, San Diego, California USA, www.graphpad.com.
Table S2 . GI 50 values (nM) calculated for eCF309 , eCF311 , eCF312 , eCF324 , eCF325 and controls
Cells were treated with 10, 3, 1 µM,
300, 100, 30, 10, 3, 1, 0 nM of each inhibitor during 5 d. Cell growth (PrestoBlue) was related to t=0 (before
drug treatment), and GI 50 values were extrapolated from their corresponding sigmoidal dose-response curve

PI3Kα = test system: PI3Kα; design: method as in earlier work; conditions: recombinant kinase; previously obtained kinase profiling data; cited from earlier work
T98 cells [2] = test: Cell viability assay (PrestoBlue, 5 d) in T98 glioma cells; format: cell-based; conditions: Homo sapiens, T98, 120 h, library screen, 5 d treatment, mean of three independent experiments in triplicates, read-out: EC50 T98 ± SEM
T98 cells [3] = test: as above; format: cell-based; conditions: Homo sapiens, T98, 120 h; repeat for most potent hits; 7-point half-log dose-response 1 to 1,000 nM; PrestoBlue day 5
mTOR = test system: mTOR; design: method as in earlier work; conditions: recombinant kinase; previously obtained kinase profiling data; cited from earlier work
U87 cells [4] = test: Cell viability assay (PrestoBlue, 5 d) in U87 glioma cells; format: cell-based; conditions: Homo sapiens, U-87 MG, 120 h, library screen, 5 d treatment, mean of three independent experiments in triplicates, read-out: EC50 U87 ± SEM
U87 cells [5] = test: as above; format: cell-based; conditions: Homo sapiens, U-87 MG, 120 h; repeat for most potent hits; 7-point half-log dose-response 1 to 1,000 nM; PrestoBlue day 5

## CC(C)n1nc(-c2ccc3oc(N)nc3c2)c2c(N)ncnc21 [INK128, sapanisertib, reference compound]
G317 spheroids
  reduction of G317 spheroid size (area at day 10): most potent antiproliferative activities
[1]
  GI50: 9.3 nM

## Nc1nc2cc(-c3nn(CC4CCCC4)c4ncnc(N)c34)ccc2o1 [eCF324]
PI3Kα
  IC50: 3.5 nM
G317 spheroids
  reduction of G317 spheroid size (area at day 10): most potent antiproliferative activities
[1]
  GI50: 7.2 nM
T98 cells [2]
  EC50: 11 ± 3 nM
T98 cells [3]
  EC50: 10 nM
mTOR
  IC50: 1.8 nM
U87 cells [4]
  EC50: 16 ± 3 nM
U87 cells [5]
  EC50: 13 nM

Source: PMC6961122 (Bioorganic & Medicinal Chemistry, 2020)
